Results from patent US20220296547A1, “METHODS AND COMPOSITIONS FOR TREATMENT OF DISEASES” (Tranexamic Technologies, LLC, priority 2020, published 2022).
Entries after “also recorded” stand apart in the source; their conditions may differ.

How the values were obtained:
plasmin [1] = molecular target: T1, plasmin (Homo sapiens, UniProt P00747); conditions: cited from earlier work
Target sequence in this assay (P00747 581-810 limits assumed, species assumed): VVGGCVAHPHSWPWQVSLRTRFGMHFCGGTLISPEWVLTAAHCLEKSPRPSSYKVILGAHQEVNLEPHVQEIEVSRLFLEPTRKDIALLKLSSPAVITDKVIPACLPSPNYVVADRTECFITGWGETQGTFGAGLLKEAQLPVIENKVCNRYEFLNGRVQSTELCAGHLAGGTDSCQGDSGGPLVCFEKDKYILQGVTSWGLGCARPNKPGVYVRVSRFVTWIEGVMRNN
Target sequence in this assay (P00747 97-580 partner limits assumed, species assumed): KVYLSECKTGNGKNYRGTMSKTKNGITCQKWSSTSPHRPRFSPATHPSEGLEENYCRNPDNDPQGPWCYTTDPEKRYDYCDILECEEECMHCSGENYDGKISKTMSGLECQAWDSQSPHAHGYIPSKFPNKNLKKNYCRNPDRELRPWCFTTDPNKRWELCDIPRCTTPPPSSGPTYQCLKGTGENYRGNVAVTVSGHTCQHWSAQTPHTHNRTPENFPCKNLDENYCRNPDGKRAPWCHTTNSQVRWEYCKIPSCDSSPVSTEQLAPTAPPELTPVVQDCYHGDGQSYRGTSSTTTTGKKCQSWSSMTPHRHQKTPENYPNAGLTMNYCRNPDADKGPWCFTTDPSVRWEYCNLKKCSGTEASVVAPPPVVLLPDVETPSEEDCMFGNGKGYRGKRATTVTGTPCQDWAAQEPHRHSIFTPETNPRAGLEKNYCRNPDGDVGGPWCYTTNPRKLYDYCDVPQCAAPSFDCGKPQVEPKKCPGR

[2] = test system: HCI-001 breast cancer cells; assay: MTT cell viability assay; format: cell-based
[3] = test system: histone lysine acetylation; assay: Histone lysine acetylation in BT474 cells; format: cell-based
[4] = molecular target: p300 acetyltransferase enzyme (Homo sapiens, UniProt Q09472); assay: p300 acetyltransferase enzyme assays (immunoblot H3K9Ac / H3K27Ac); conditions: two sets of enzyme assays
Chain of p300 acetyltransferase enzyme (Q09472 whole entry): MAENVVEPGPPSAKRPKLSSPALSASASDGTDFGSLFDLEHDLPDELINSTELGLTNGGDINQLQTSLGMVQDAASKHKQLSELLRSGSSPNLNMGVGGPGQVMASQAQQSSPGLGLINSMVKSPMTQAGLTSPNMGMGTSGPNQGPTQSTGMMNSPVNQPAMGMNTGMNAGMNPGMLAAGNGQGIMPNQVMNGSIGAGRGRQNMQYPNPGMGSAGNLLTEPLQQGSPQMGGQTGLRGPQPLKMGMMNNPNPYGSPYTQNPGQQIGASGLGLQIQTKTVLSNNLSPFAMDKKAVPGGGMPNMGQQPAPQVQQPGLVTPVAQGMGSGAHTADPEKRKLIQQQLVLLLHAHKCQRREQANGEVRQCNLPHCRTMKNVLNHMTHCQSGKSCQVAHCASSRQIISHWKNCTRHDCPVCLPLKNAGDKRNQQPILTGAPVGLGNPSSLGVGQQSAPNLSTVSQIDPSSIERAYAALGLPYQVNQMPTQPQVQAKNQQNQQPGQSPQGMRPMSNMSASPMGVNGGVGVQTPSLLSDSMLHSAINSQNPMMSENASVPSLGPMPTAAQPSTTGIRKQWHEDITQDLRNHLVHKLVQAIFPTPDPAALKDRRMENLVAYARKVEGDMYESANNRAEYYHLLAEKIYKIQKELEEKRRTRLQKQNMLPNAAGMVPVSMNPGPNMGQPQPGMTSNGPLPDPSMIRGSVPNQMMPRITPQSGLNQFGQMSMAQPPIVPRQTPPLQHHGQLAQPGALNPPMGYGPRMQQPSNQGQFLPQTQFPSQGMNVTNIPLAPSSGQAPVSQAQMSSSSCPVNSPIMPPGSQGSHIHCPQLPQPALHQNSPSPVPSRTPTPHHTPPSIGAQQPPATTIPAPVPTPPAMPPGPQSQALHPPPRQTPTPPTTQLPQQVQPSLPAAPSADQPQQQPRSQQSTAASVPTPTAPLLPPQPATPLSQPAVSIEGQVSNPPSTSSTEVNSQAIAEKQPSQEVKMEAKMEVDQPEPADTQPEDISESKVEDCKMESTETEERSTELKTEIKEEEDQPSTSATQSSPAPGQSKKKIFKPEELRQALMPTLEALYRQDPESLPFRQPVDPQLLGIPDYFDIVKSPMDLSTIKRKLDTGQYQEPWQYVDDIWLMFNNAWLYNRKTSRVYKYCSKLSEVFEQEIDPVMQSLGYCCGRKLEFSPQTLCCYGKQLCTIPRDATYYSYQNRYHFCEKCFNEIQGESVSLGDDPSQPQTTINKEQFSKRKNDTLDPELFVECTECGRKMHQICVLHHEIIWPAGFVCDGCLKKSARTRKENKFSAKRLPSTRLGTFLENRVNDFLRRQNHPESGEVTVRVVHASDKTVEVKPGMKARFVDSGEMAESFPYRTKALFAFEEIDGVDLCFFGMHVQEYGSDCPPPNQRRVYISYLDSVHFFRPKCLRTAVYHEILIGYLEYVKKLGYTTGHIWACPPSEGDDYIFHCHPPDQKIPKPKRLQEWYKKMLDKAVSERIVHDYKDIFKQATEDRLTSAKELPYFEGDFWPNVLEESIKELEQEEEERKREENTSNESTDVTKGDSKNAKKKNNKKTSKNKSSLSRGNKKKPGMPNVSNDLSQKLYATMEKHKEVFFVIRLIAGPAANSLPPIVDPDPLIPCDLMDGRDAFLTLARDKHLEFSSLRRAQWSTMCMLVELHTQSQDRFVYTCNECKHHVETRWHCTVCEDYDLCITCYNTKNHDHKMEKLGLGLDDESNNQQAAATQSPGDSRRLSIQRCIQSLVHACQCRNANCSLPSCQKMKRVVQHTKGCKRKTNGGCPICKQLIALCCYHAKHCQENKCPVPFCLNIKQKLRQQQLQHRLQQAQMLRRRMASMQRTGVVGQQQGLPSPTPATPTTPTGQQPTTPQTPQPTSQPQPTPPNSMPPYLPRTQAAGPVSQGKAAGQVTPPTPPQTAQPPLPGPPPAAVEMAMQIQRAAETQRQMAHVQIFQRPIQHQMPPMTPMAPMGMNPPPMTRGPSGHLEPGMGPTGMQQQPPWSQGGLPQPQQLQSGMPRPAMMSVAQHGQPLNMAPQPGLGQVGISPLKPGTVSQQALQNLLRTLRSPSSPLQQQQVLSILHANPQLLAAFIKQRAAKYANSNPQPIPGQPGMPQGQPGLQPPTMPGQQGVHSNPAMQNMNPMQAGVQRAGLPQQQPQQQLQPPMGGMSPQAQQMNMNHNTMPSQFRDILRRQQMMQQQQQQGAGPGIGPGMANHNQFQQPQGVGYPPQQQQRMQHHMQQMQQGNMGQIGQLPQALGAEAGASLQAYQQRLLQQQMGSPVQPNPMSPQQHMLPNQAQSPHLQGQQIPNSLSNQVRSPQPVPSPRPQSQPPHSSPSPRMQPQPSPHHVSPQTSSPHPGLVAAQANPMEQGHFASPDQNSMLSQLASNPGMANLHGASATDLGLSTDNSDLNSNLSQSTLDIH
Method: This is measured by immunoblotting with antibodies that specifically recognize histone 3 (H3) acetylated (Ac) on lysine (K) number 9 or 27.

[5] = test system: programmed death-ligand 1 (PD-L1); assay: PD-L1 expression (FIG. 18); format: cell-based; conditions: high concentration (2%)
plasmin [6] = molecular target: T1, plasmin; conditions: accepted value from studies; cited from earlier work
Target sequence in this assay (P00747 20-810 limits assumed): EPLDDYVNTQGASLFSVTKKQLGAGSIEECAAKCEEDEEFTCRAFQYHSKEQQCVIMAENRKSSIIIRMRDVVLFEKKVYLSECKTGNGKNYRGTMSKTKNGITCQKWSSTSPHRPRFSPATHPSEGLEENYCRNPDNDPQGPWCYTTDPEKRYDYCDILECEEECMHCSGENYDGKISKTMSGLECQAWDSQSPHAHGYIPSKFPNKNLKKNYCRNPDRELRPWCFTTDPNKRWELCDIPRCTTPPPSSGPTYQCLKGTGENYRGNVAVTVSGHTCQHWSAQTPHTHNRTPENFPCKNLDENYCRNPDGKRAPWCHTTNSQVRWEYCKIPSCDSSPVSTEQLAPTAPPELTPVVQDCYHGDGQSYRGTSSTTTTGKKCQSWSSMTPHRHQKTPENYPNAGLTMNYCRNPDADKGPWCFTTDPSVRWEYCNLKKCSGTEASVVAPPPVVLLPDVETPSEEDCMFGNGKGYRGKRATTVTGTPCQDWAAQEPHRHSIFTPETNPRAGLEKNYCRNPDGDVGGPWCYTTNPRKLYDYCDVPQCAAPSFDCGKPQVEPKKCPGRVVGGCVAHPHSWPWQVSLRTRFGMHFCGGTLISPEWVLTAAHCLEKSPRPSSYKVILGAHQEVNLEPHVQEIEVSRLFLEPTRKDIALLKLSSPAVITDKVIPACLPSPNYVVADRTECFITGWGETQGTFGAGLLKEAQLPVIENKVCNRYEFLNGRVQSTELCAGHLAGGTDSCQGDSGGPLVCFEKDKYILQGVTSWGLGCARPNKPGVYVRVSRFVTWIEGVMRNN

[7] = test system: AKT in MDA-MB-468 human breast cancer cell line; assay: AKT activity (phospho-AKT substrate antibody); format: cell-based
From the text: (§1) The N-Myc-related gene c-Myc, or MYC, is frequently overexpressed in many human cancers, including breast cancer.

[8] = test system: broad array of cancer and epithelial cell lines; assay: MTT cell viability assays with increasing concentrations (FIG. 2, FIG. 5); format: cell-based
[9] = test system: BT474 breast cancer cells; assay: Markers of the mitotic phase (cyclin B, MPM2); format: cell-based; conditions: 1%
CDCP1 cleavage = CDCP1 cleavage in MDA-MB-231 breast cancer cell extracts; format: cell-based
From the text: (§2) None of the treatments altered the overall pattern of protein tyrosine phosphorylation. […] Cleavage of CDCP1 may play a role in driving tumor invasion given the preferential binding of the cleaved form of CDCP1 with cell adhesion molecules such as beta1-integrin and E-cadherin.

histone H3 = assay: Acetylation of histone H3 on lysine 27 and lysine 9; format: cell-based
[10] = test system: HCI-012/LVM2/LR10 drug-resistant, HER2+, metastatic breast cancer; assay: Breast tumor growth in patient-derived model; format: in vivo, mice; conditions: orally, once daily, 375 mg/kg
[11] = test system: MCF10A cells overexpressing the MYC oncogene; assay: MTT assay, MYC overexpressing versus vector control cells; format: cell-based, human
From the text: as §1

[12] = test system: human mammary epithelia cells (HMEC); assay: DNA synthesis (tritiated thymidine incorporation); format: cell-based; conditions: HMEC non-transformed epithelial line; 24 h
[13] = test system: protein lysine acetylation in a second breast cancer cell line; assay: Protein lysine acetylation over time (FIG. 10); format: cell-based; conditions: as early as 4 h
[14] = test system: lysine acetylation of cellular proteins; assay: Lysine acetylation of cellular proteins and histones (FIG. 8); format: cell-based
S6K1 (p70s6k) = assay: Ribosomal S6 protein phosphorylation; format: cell-based
From the text: as §1

[15] = intravenous doses of 80-100 mg/kg and above, e.g. during heart surgery; cited from earlier work
[16] = test system: BT474, MDA-MB-468, B16, KPPC, HMEC and HaCaT cell lines; assay: DNA synthesis (tritiated thymidine incorporation), cell line panel; format: cell-based; conditions: 24 h treatment, 0 to 8%, DNA synthesis during a 3 h window
cell cycle = assay: Cell cycle study; format: cell-based
MDA-MB-468 cells = assay: MTT cell viability assay (FIG. 2); format: cell-based, human; conditions: MDA-MB-468, known to overexpress MYC
[17] = test system: AKT in MYC overexpressing MCF10A cells; assay: AKT activity (phospho-AKT substrate antibody); format: cell-based, human
From the text: as §1

[18] = test system: BT474 breast cancer cells; assay: DNA synthesis (tritiated thymidine incorporation); format: cell-based; conditions: 24 h treatment, 0 to 8%
[19] = test system: human keratinocytes (HaCaT); assay: DNA synthesis (tritiated thymidine incorporation); format: cell-based; conditions: HaCaT non-transformed epithelial line; 24 h
[20] = test system: epidermal growth factor receptor (EGFR); assay: EGFR expression (FIG. 8); format: cell-based
[21] = test system: SH-SY5Y neuroblastoma cells; assay: MTT cell viability assay; format: cell-based
STAT3 = STAT3 phosphorylation; format: cell-based
From the text: as §1

MDA-MB 468 cells = assay: MTT assay with tranexamic acid derivatives; format: cell-based, human; conditions: MDA-MB 468, 72 h, increasing concentrations
Method: MDA-MB 468 cells were plated at 6,250 cells per well in a 96-well plate and incubated overnight at 37° C. […] Cell viability was evaluated using an MTT assay.

PAI-1 = PAI-1 levels in MDA-MB-231 breast cancer cell extracts; format: cell-based; conditions: FIG. 6
From the text: as §2

[22] = test system: MDA-MB-468 breast cancer cells; assay: Markers of the mitotic phase (cyclin B, MPM2); format: cell-based, human; conditions: 1%
non-melanoma skin cancer = conditions: mice, long-term UV irradiation; cited from earlier work

## NC[C@H]1CC[C@H](C(=O)O)CC1 [tranexamic acid]
Plasmin [1]
  plasmin protease activity: directly inhibits plasmin protease activity
[2]
  cell viability (MTT): decreased viability
[3]
  effect on histone acetylation in presence of the histone deacetylase inhibitor SAHA: did not overcome the effects of the histone deacetylase inhibitor SAHA
[3]; particularly at higher concentrations
  histone lysine acetylation: suppressed histone lysine acetylation
[4]
  p300 acetyltransferase activity: inhibits p300 activity
[5]
  PD-L1 expression: did not
Plasmin [6]
  blood concentration required to inhibit formation of plasmin and provide antifibrinolysis: 10 to 20 µg/mL
[7]
  AKT activity: suppressed AKT activity
[8]
  cell viability (MTT) across cell lines: all lines are inhibited; also recorded: dose dependently suppresses the viability
[9]
  markers of the mitotic phase of the cell cycle (cyclin B, MPM2): elevates markers of the mitotic phase
CDCP1 cleavage; 0.5%
  CDCP1 cleavage at lowest concentration: good inhibition of CDCP1 cleavage
CDCP1 cleavage; MDA-MB-231 breast cancer cell extracts
  CDCP1 cleavage: blocks CDCP1 cleavage
Histone H3; carried out by other enzymes
  acetylation of histone H3 on lysine 9: not on lysine 9
Histone H3; carried out by p300 and CBP
  acetylation of histone H3 on lysine 27: blocks acetylation
[10]
  tumor growth versus vehicle (water): suppresses tumor growth more effectively than a vehicle
[11]
  sensitivity of MYC overexpressing cells versus unaltered control cells (MTT): significant increase in tranexamic acid sensitivity; also recorded: significantly more sensitive
[12]
  proliferation (DNA synthesis): affects the proliferation
[13]
  protein lysine acetylation: reduces protein lysine acetylation
[14]
  histone acetylation compared with vehicle treatment: suppressed histone acetylation
  levels of lysine acetylation of cellular proteins: reduces the levels of lysine acetylation
S6K1 (p70s6k)
  p70s6k inhibition: inhibits p70s6k
  phosphorylation of the ribosomal S6 protein: reduced phosphorylation of the ribosomal S6 protein
[15]
  seizure risk: risk of seizure
[16]
  DNA synthesis / cell proliferation across cell lines: suppresses the proliferation; also recorded: affected all the cell lines examined
Cell cycle
  cell cycle arrest: causes G2/M-phase cell cycle arrest
MDA-MB-468 cells
  sensitivity compared to other cell lines tested (MTT): most sensitive
[17]
  AKT activity: suppressed AKT activity
[18]
  sensitivity of DNA synthesis compared to other cell lines: most sensitive to low concentrations
[19]
  proliferation (DNA synthesis): affects the proliferation
[20]; FIG. 8
  expression of EGFR: decreases expression
[20]; FIG. 8, as worded
  EGFR downregulation: did not increase
[21]; SH-SY5Y neuroblastoma cells
  cell viability (MTT): decreased viability
[21]; SH-SY5Y, N-Myc amplified / MYC overexpressed
  sensitivity compared to other cell lines tested (MTT): most sensitive
STAT3
  STAT3 phosphorylation on Serine 727: not Serine 727
  STAT3 phosphorylation on Tyrosine 705: decreases STAT3 phosphorylation on Tyrosine 705
MDA-MB 468 cells
  cell viability (MTT): reduced MDA-MB 468 cell viability
PAI-1
  PAI-1 levels / expression: without increasing PAI-1 levels
[22]
  markers of the mitotic phase of the cell cycle (cyclin B, MPM2): elevates markers of the mitotic phase
non-melanoma skin cancer
  non-melanoma skin cancer development: reduced
  plasma MMP-9 and IL-6, skin plasmin, CC chemokine 2, macrophages, STAT3, cyclin D and VEGF-A: suppresses increases
